How the values were obtained:
asthma = conditions: Phase I; cited from earlier work
Text: CD23 was also directly triggered by specific antibodies as therapeutic approach.

[1] = test system: human CD23+ monocyte-derived macrophages; assay: Nitrite (NO) generation by CD23-activated human macrophages, Griess reaction; format: cell-based; conditions: for iNOS-mediated NO generation: pre-incubation prior to CD23-mediated activation, mean±s.d. of 7 donors (Figure 2C)
Experimental: Figure 2 Inhibition of CD23-mediated activation of iNOS pathway in human macrophages by p30A. Human CD23^+ monocyte-derived macrophages were incubated with cross-linking CD23-McAb (20 µg/ml) alone or following 1 h pre-incubation with 10 µg/ml of various peptides. […] Expression of iNOS mRNA was compared to HPRT mRNA levels. (B) Inhibition of NO generation from human activated macrophages by synthetic peptides. Cell supernatants were collected 72 h following cell cultures and levels of nitrites were determined. […] Results are expressed as mean of 3 distinct donor cell preparations (SEM<20%). (C) Inducible NOS-mediated NO generation in human macrophages is decreased following pre-incubation with p30A or L-NIL prior to CD23-mediated activation. Results are expressed as mean±s.d. of 7 distinct donor cell preparations.
(§1) Monocytes or macrophages were activated through CD23 pathway: while monocytes/macrophages from RA patients express CD23, monocytes from healthy donors must be pre-activated to express surface CD23 as described. This pre-activation was obtained by incubation of healthy monocytes with recombinant human IL-4 (20 ng/ml) during 48 h at 37°C; After washing, all cell populations were tested by flow cytometry for their surface CD23 expression (>80% CD23^+) and then incubated in the presence of cross-linking CD23-MAb (clones 135 or DM2, IgG1k, 20 µg/ml) during 48–72 h, or IgE and anti-IgE as described, [17]. When indicated, peptides were added to the cells 2 h prior to their activation. Cells supernatants were then analyzed for their nitric oxide content (see below) and for the presence of cytokines: levels of TNF-α and IL-6 were determined in duplicates for each sample by a specific ELISA (R&D, Paris, France) while levels of IL-1β, IL-8 and IL-10 was determined using FlowCytomix Human Th1/Th2 Kit as recommended (Bender Medsystems, Vienna, Austria).
Culture supernatants (72 h) were assayed for the stable end-product of NO, NO2 ^− using the Griess reaction modified as detailed elsewhere. Inhibitory analog of L-arginine, L-NIL (N(6)-(1-iminoethyl)-L-lysine/2HCl, Coger SA, Paris, France) was used to inhibit iNOS-mediated NO generation. This method gave a sensitivity limit of 0.2 µM if low NO2 ^− medium (DMEM) was used. Total RNA was isolated as above from peritoneal macrophages. Reverse transcription-PCR was performed with an automatic thermal cycler (iCycler, Biorad) using the following specific primers: iNOS mRNA sense (5′-[…]-3′, exon 8) and iNOS mRNA antisense (5′-[…]-3′, exon 11). Hypoxanthine phosphoribosyltransferase (HPRT) mRNA sense (5′-[…]-3′) and HPRT mRNA antisense (5′-[…]- 3′) primers were used as controls. The iNOS messenger is represented by a 371-bp band, whereas a 496-bp band indicates the HPRT messenger.

iNOS = conditions: cited from earlier work
Text: Upon acquisition of CD23 surface expression, human cells may be activated using its biological ligands (e.g. IgE/antigen) or cross-linking with a specific anti-CD23 McAb, [16]. […] To confirm the ability of p30A to inhibit CD23-mediated signaling in human macrophages, we pretreated cells with purified peptides prior to their activation by McAb. Synthetic p30A reduced the levels of inducible nitric oxide syntha ...

[2] = test system: peritoneal macrophages of AIA rats; assay: Ex vivo cytokine release from peritoneal macrophages of treated AIA rats, ELISA; format: in vivo, rat, Female Lewis; conditions: treatment after onset of symptoms (AIA+p30A, 10 mg/rat; HC 30 mg/rat); cells collected 50 days post-immunization; 48 h culture; 4 rats
Experimental: AIA rats were treated either after (AIA+p30A) or before (p30A+AIA) the onset of symptoms. Treatment consisted of p30A (10 mg/rat) or hydrocortisone (HC, 30 mg/rat). Rat peritoneal macrophages were collected following 50 days post-immunization, washed and re-incubated in culture medium alone. Cell supernatants were collected 48 h later and cytokine levels were quantified. Macrophages from healthy rats were also incubated in similar conditions. Values are mean±s.d. of cells from 4 different rats.
Adjuvant arthritis was induced in six week-old animals by subcutaneous injection at the base of the tail of 300 µl containing 1.8 mg of inactivated Mycobacterium butyricum (Difco Laboratories, Detroit, MI) diluted in emulsion of 8 ml Vaseline, 1 ml polysorbate 80, and 1 ml PBS (Phosphate Buffer Saline, Eurobio). Rats were boosted one week later following the same procedure. Observation was conducted for up to 50 days following immunization for clinical signs of arthritis. Rats were divided in different groups of 8 rats. Groups were treated with five injections (every 2 days) of either p30A (10, 50 or 100 mg in a PBS solution), pCtl, hydrocortisone (Sigma Aldrich) or PBS solution. Injections were initiated two days after the appearance of first arthritic symptoms (therapeutic) or on the first day of immunization (preventive). […] Rats were sacrificed 50 days after AIA induction. Peritoneal macrophages were collected and incubated in culture medium alone for 48 h. Quantification of TNF-α and IL-1β in rat cell supernatants was performed using appropriate ELISA kits and according to manufacturer's recommendations (Biosource, Montrouge, France).

[3] = test system: healthy human PBL-derived macrophages; assay: Inflammatory mediator release from healthy human PBL-derived macrophages; format: cell-based; conditions: mean±s.d.
Experimental: Figure 4 Inhibition of inflammatory mediator generation from healthy human PBL-derived macrophages by p30A. Decreased levels of TNF-α (A), IL-6 (B), IL-1β, IL-8 and IL-10 (C) were detected in CD23-activated cells after incubation with p30A. […] Values are mean±s.d. of cells from 5 (IL-6, TNF-α) or 2 (IL-1β, IL-8, IL-10) different donors.
as §1

[4] = test system: adjuvant-induced arthritis in rats; assay: Adjuvant-induced arthritis (AIA) clinical score in rats; format: in vivo, rat, Female Lewis; conditions: AIA rats; pCtl 100 mg/rat
Experimental: Figure 6 Inhibition of in vitro and in vivo inflammatory responses in rats by p30A peptide. (A) Rat peritoneal macrophages were activated via CD23 antigens with/without p30A, L-NIL or pCtl. Cell supernatants were collected 48 h later and nitrite levels were quantified. Values are mean±s.d. of cells from 3 different rats. (B) Cumulative clinical score/rat obtained following 50 days post-immunization in all groups. AIA rats were treated either after or before (d0) the onset of symptoms. Treatment consisted of p30A, hydrocortisone (HC, 30 mg/rat)) or pCtl (100 mg/rat). Shown are means of cumulative score/rat±s.d. from 5 (HC) or 8 rats (other conditions). (C) Evolution of arthritis severity scores of adjuvant-induced arthritis (AIA) in rats treated with intracutaneous p30A or pCtl (100 mg/rat) or hydrocortisone (after the onset of clinical signs as illustrated by arrows (means from 8 rats, s.e.m.<20%). (D) Histopathologic analysis confirm p30A ability to decrease all components of AIA lesions: pannus formation and inflammation of the synovium (P), deformity of joint and bones (asterix), bone remodeling and destruction (arrowhead), bone neoformation (arrows) and cartilage destruction.
All animal procedures were performed in strict accordance with the guidelines issued by the European Economic Community “86/609”. Female Lewis rats (Janvier, Le Genest St Isle, France) were housed under standard laboratory conditions with free access to food and water. The temperature was kept at 22±2°C and a 12 hour light/dark schedule was maintained.
Adjuvant arthritis was induced in six week-old animals by subcutaneous injection at the base of the tail of 300 µl containing 1.8 mg of inactivated Mycobacterium butyricum (Difco Laboratories, Detroit, MI) diluted in emulsion of 8 ml Vaseline, 1 ml polysorbate 80, and 1 ml PBS (Phosphate Buffer Saline, Eurobio). Rats were boosted one week later following the same procedure. Observation was conducted for up to 50 days following immunization for clinical signs of arthritis. Rats were divided in different groups of 8 rats. Groups were treated with five injections (every 2 days) of either p30A (10, 50 or 100 mg in a PBS solution), pCtl, hydrocortisone (Sigma Aldrich) or PBS solution. Injections were initiated two days after the appearance of first arthritic symptoms (therapeutic) or on the first day of immunization (preventive). Evaluation of AIA severity was performed by two independent observers who where not aware of the study protocol. The severity of AIA in each paw was quantified daily using an ordinal clinical score measurement from 0 to 4 as follows: no signs of inflammation ( = 0); swelling alone (>2 fold paw diameter) ( = 1) or swelling/immobility ( = 2) of one paw; swelling ( = 3) or swelling/immobility ( = 4) of two paws. Weight evolution of rats was measured daily. Rats were sacrificed 50 days after AIA induction. Peritoneal macrophages were collected and incubated in culture medium alone for 48 h. Quantification of TNF-α and IL-1β in rat cell supernatants was performed using appropriate ELISA kits and according to manufacturer's recommendations (Biosource, Montrouge, France).

lumiliximab: Primate/human CD23-McAb, developed for the treatment of chronic lymphocytic leukemia
clinical outcome, asthma (asthma): promising therapy in Phase I of clinical trials for asthma

CC(=N)NCCCC[C@H](N)C(=O)O.Cl.Cl [L-NIL, N(6)-(1-iminoethyl)-L-lysine/2HCl, reference compound]
iNOS-mediated NO generation [1]: decreased | iNOS inhibition (iNOS): specific inhibitor of iNOS

C[C@]12CCC(=O)C=C1CC[C@@H]1[C@@H]2[C@@H](O)C[C@@]2(C)[C@H]1CC[C@]2(O)C(=O)CO [hydrocortisone, reference compound]
IL-1β release ex vivo, therapeutic [2]: moderately decreased IL-1β levels

SFNYNYA [pCtl, reference compound]
IL-6 level ([3]; ELISA, 5 donors): No effect | TNF-α level ([3]; ELISA, 5 donors): No effect | IL-1β level ([3]; FlowCytomix, 2 donors): No effect | IL-8 level ([3]; FlowCytomix, 2 donors): No effect | IL-10 level ([3]; FlowCytomix, 2 donors): No effect | NO (nitrite) generation, dose-dependence ([1]; CD23-McAb 20 µg/ml, 1 h pre-incubation with peptide, supernatants at 72 h, mean of 3 donors (SEM<20%)): no effect | iNOS-mediated NO generation [1]: not observed | beneficial effect on arthritis [4]: this beneficial effect was not found

— paper PMC2652713, “Molecular Blocking of CD23 Supports Its Role in the Pathogenesis of Arthritis” (PLoS ONE, 2009)
